The source made the active and inactive calls.
Assays:
[1] = growth suppression of beta-catenin-knockout colon cells, dose response, cell-based, HCT116, human colon tumor (AID 1045); format: functional;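 further: HCT116 colon tumor cells with beta catenin knocked out; cells exposed to compound for 60 hours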
[2] = inhibitors of intracellular T. cruzi replication, confirmation, NIH3T3 host cells, beta-gal luminescence (AID 2044); format: functional, cell-based;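 further: intracellular parasites grown in NIH/3T3 mouse fibroblasts as host cells; luminescent beta-galactosidase reporter signal from transgenic T. cruzi replicating inside host cells; inhibitors lower the luminescence signal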
[3] = growth suppression of PTEN-null colon cells, dose response, cell-based, HCT116 PTEN knockout (AID 1047); format: functional;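 further: HCT116 colon tumor cells with PTEN knocked out; cells exposed to compound for 60 hours before readout; potency for loss of cell viability measured by luminescence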
[4] = cytotoxicity toward NIH3T3 fibroblasts, dose response, counter-screen, cell-based, ATP luminescence, mouse fibroblasts (AID 2010); format: functional;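 further: cells exposed to compound for about 90 hours before reading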
[5] = system: INS1; test: beta cell apoptosis inhibitors, cytokine rescue, dose response, luminescence, retest (AID 449756); format: functional, cell-based; details: Rattus norvegicus;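 further: cell death triggered by IL-1 beta plus TNF-alpha plus IFN-gamma mixture; protective hits raise ATP signal compared with cytokine alone wells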
[6] = biological target: T1, Microphthalmia-associated transcription factor (Homo sapiens, UniProt O75030); test: TRPM1 promoter luciferase signal decrease, dose response, MITF inhibitor project, cell-based, SK-MEL-5, cherry-picked, set 3 (AID 493073); format: functional
T1 sequence (O75030 whole entry): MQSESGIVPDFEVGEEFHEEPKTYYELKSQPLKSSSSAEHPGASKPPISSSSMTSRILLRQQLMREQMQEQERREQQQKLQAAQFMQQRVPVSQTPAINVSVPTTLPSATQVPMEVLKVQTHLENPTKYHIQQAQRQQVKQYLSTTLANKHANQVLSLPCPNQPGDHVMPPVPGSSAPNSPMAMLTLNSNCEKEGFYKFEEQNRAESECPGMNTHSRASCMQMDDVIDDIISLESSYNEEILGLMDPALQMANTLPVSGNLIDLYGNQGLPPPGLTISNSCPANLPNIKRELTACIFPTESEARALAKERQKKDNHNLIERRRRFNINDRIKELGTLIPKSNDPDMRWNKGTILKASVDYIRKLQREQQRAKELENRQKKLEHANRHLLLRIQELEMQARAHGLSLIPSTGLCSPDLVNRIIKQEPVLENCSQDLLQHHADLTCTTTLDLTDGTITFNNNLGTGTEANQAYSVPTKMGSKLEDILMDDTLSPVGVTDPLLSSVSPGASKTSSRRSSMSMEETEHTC

[7] = HepG2 cell cytotoxicity, dose response, cytotoxicity control for non-replicating M. tuberculosis project (AID 489018); format: functional; details: Mycobacterium tuberculosis
[8] = THP-1 cell cytotoxicity, dose response, cytotoxicity control for non-replicating M. tuberculosis project (AID 489025); format: functional
[9] = Vero E6 cell cytotoxicity, dose response, cytotoxicity control for non-replicating M. tuberculosis project, secondary assay (AID 492998); format: functional, VeroE6; details: Vero C1008
[10] = cells; format: functional
[11] = biological target: T2, High affinity choline transporter 1 (Homo sapiens, UniProt Q9GZV3); test: CHT inhibitors, dose response, cell-based, 5-point CRC, membrane potential dye (AID 504840); format: functional
T2 sequence (Q9GZV3 whole entry): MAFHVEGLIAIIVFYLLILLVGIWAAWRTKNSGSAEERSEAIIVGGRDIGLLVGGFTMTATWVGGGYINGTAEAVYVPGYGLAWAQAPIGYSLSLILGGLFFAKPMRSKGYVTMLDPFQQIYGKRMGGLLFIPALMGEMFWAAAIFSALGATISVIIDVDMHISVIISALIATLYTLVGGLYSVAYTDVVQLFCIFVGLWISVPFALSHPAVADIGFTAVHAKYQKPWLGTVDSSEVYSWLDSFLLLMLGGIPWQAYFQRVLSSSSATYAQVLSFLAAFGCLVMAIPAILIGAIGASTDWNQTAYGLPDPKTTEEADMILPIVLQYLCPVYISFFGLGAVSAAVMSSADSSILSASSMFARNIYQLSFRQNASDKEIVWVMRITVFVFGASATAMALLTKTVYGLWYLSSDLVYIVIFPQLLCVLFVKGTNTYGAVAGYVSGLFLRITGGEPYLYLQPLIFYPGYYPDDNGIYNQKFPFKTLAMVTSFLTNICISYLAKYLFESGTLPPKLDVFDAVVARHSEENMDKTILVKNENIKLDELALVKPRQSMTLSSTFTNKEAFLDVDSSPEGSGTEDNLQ

[12] = system: Streptococcus sp. 'group A'; test: growth inhibition of control SK(-) GAS strain, dose response, counter-screen for streptokinase expression inhibitor project, luminescence, kanamycin, BacTiterGlo, confirmation (AID 1900); format: functional, organism-based
[13] = inhibitors of SNCA 5'UTR-driven reporter translation, confirmation, H4 neuroglioma cells, luminescence (AID 1988); format: functional, cell-based
[14] = cells; format: functional, cell-based
[15] = system: Streptococcus; test: Group A Streptococcus viability loss, dose response, counter-screen for streptokinase expression inhibitor project, luminescence, BacTiterGlo (AID 1915); format: functional, organism-based;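 further: potency for reduction of bacterial viability or growth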
[16] = Luminescence Cell-Based Dose Response HTS to Identify Inhibitors of 5'UTR Stem-Loop Driven Prion Protein mRNA Translation in H4 Neuroglioblastoma Cells. [Related pubchem assays: 1827 (Project Summary), 1813 (Primary HTS)]; format: functional
[17] = cells; format: functional, cell-based; remark: listed apart in the source
[18] = biological target: T3, Streptokinase A (Streptococcus pyogenes serotype M1, UniProt P10520); test: S. pyogenes streptokinase expression inhibitors, potency, dose response, plasminogen activation absorbance, OD405 (AID 1914); format: functional, Streptococcus pyogenes M1 GAS;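 further: secreted streptokinase activity via plasminogen activation per viability signal from cell pellet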
T3 sequence (P10520 whole entry): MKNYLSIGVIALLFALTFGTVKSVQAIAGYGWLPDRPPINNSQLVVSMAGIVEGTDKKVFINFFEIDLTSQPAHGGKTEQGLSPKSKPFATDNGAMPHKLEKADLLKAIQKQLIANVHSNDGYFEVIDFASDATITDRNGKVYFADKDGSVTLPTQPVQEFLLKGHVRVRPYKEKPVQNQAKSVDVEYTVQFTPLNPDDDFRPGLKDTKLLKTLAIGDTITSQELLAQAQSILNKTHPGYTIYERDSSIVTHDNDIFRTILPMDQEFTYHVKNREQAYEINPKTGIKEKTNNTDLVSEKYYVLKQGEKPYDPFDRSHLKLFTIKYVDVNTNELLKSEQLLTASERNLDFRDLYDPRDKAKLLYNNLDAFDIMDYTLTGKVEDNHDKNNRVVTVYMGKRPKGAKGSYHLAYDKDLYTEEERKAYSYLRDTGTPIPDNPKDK

[19] = inhibitors of firefly luciferase expression or activity, dose response, H4 neuroglioma cells, luminescence (AID 1990); format: functional, cell-based
[20] = microbe, parasite or virus in culture; format: functional; details: Mycobacterium tuberculosis
[21] = cytotoxicity in HEK-293T cells, dose response, cytotoxicity control for BCR NF-kB inhibitor project, luminescence, B-cell screen hits (AID 489021); format: functional, cell-based;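 further: HEK-293T cells carrying an NF-kB luciferase reporter; cells exposed to compound for about 14 hours before viability readout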
[22] = biological target: T4, Calpain-2 catalytic subunit (Sus scrofa, UniProt P43367); test: pig calpain II inhibitor potency, dose response, biochemical, fluorogenic peptide substrate (AID 1420); format: functional
T4 sequence (P43367 whole entry): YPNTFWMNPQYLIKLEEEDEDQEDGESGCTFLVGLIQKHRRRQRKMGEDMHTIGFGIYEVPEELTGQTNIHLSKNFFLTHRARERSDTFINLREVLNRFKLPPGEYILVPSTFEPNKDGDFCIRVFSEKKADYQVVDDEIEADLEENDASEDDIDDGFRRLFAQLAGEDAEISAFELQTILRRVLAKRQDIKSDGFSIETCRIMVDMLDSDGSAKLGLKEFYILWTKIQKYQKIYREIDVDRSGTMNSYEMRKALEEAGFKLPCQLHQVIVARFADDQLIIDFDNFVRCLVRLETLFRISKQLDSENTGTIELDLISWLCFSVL

[23] = biological target: Luciferin 4-monooxygenase (Photinus pyralis, UniProt P08659); test: firefly luciferase enzyme inhibitors, dose response, biochemical, luminescence (AID 1891)
[24] = Luminescence Cell-Based Dose Confirmation HTS to Identify Inhibitors of Platelet Dense Granule Release. [Related pubchem assays: 1663 (Primary HTS), 1678 (Summary of Project)]; format: functional

Luciferin 4-monooxygenase, sequence (P08659 whole entry): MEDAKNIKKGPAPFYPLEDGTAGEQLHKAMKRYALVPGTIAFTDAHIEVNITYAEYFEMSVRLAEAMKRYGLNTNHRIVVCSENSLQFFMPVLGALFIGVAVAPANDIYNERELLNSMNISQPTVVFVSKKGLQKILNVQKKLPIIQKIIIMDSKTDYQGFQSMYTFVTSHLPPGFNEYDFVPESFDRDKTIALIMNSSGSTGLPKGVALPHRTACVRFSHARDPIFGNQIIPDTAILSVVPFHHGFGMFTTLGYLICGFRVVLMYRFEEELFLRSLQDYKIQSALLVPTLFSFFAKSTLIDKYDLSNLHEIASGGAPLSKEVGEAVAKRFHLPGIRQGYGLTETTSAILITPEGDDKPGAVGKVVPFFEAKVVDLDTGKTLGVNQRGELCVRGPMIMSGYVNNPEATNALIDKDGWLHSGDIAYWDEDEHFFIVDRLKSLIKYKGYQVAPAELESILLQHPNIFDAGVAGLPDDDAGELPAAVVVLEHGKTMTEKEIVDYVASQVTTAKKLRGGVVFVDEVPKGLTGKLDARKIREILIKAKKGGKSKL

In the case of Cn1c(SCC(=O)N/N=C/c2ccc([N+](=O)[O-])s2)nnc1-c1ccccc1, the EC50 [1] is reported as 4.99 µM (active), the EC50 [2] is reported as 0.634 µM (active) and the EC50 [3] is reported as 4.9 µM (active). For the same compound, the EC50 [4] was 19.8 µM (active), the AC50 [5] was 3.5 µM (active) and the AC50 [6] was 4.28 µM (active).

For Nc1cccn2c(-c3ccc(Cl)cc3)cnc12, the CC50 [7] was 19.1 µM (active).

For O=C(NC(=S)NCc1ccccc1)c1ccccc1, the AC50 [6] was 22.1 µM (active).

With COc1ccc(/C(C)=N/Nc2ncc(Cl)cc2Cl)c(O)c1 the CC50 [8] was 24.9 µM (active), the CC50 [9] was > 20 µM (active) and the IC50 [10] was 2.19 µM (active). For the same compound, the CC50 [7] was 19.3 µM (active).

In the case of CN(C)CCCn1c(=O)n(C2CCCCC2)c(=O)c2c3c(sc21)CCCCC3, the CC50 [8] is reported as 23.8 µM (active), the IC50 [11] is reported as 8.71 µM (active) and the IC50 [10] is reported as 24.9 µM (active).

In the case of COC(=O)/C(=C/c1c[nH]c2ccccc12)[N+](=O)[O-], the IC50 [11] is reported as 0.724 µM (active).

In the case of Cc1ccc(NC(S)=NNC(=O)C2CC2c2ccc(C)cc2)cc1 (stereo unspecified), the IC50 [11] is reported as 13.2 µM (active).

In the case of Cc1nnc(-c2ccccc2)c(=O)n1/N=C/c1c(O)ccc2ccccc12, the EC50 [12] is reported as 2.7 µM (active), the CC50 [8] is reported as 3.63 µM (active) and the EC50 [13] is reported as > 120 µM (not active). The EC50 [2] was 1.16 µM (active), the EC50 [14] was 25.7 µM (active) and the CC50 [9] was 8.43 µM (active). The EC50 [4] was 1.97 µM (active), the EC50 [15] was 36.2 µM (active) and the EC50 [16] was 9.49 µM (active). The EC50 [17] was > 350 µM (not active), the EC50 [18] was > 150 µM (not active) and the EC50 [19] was > 120 µM (not active). The CC50 [20] was 18.9 µM (active), the IC50 [10] was 35.3 µM (active) and the CC50 [7] was > 20 µM (active).

For Cc1nnsc1C(=O)N/N=C/c1ccc2ccccc2c1O, the CC50 [8] was < 0.078 µM (active), the EC50 [14] was 6.43 µM (active) and the CC50 [9] was 0.09 µM (active). The AC50 [5] was 0.321 µM (active), the EC50 [17] was 35.8 µM (active) and the IC50 [10] was > 50 µM (active). For the same compound, the CC50 [7] was 1.51 µM (active).

For CCc1cc(CC)c(/C=N/NC(N)=O)c(CC)c1/C=N/NC(N)=O, the IC50 [11] was 11.1 µM (active).

In the case of COc1ccc(C(=O)NC(C)c2nccs2)cc1OC1CCN(C(C)C)CC1 (stereo unspecified), the IC50 [11] is reported as 12.9 µM (active).

With COc1cc2nc(SCC(=O)NCc3ccco3)n(Cc3ccc(Cl)cc3)c(=O)c2cc1OC the AC50 [6] was 13.2 µM (active).

In the case of O=S(=O)(c1ccc(N2CCCC2)nc1)N1CCCC1, the IC50 [11] is reported as 8.93 µM (active).

In the case of Cc1nn(-c2ccccc2)c(C)c1C(=O)OCC(=O)NC(=O)NC1CCCC1, the IC50 [11] is reported as 14.5 µM (active).

With O=C(CCCN1C(=O)/C(=C/c2ccccc2Cl)SC1=S)NNC(=O)c1ccc(Cl)cc1Cl the EC50 [13] was 1.03 µM (active), the IC50 [21] was > 80 µM (inactive) and the IC50 [22] was > 50 µM (not active). The EC50 [23] was > 112 µM (not active), the EC50 [16] was 7.86 µM (active) and the EC50 [24] was > 112 µM (not active). The EC50 [19] was 0.675 µM (active).
